Like-named read-outs stand apart in the source and are kept apart here. One block for each compound: values may come before it.
Experiments:
[1] = Stability of cyanine blue dye and conjugates in aqueous solution, fluorescence intensity at 670 nm; assay type: physicochemical; conditions: 670 nanometers, ambient temperature
[2] = Stability of carboxyphloroglucinol-squaraine dye and bioconjugates in aqueous solution, fluorescence intensity at 613 nm; assay type: physicochemical; conditions: 613 nanometers (λex=515), ambient temperature
[3] = Blood clearance in rats monitored by fluorescence from ear capillaries; conditions: rat, injected through lateral tail vein; excitation 780 nm, emission 830 nm
Method: A 500 μL portion of indocyanine green solution (0.8 mg/mL) was injected through the lateral tail vein of Sprague-Dawley or Fischer rats. Blood clearance of the dye bioconjugate was monitored by fluorescence signal emanating from the capillaries of the ear surface using a laser fluorescence apparatus (excitation, 780 nm; emission 830 nm).

[4] = 822 nanometers, ambient temperature, aqueous solution
Method: An aqueous solution of indocyanine green (ICG) and the carriers, inulin, poly-d,l-aspartic acid, polyguanylic acid, MBSA, and γ-cyclodextrin were prepared and the fluorescence intensity was monitored at ambient temperature at various time intervals.

[5] = in vivo; cited from earlier work
[6] = cited from earlier work
[7] = Stability of benzothiazolim-squaraine dye and bioconjugates in aqueous solution, fluorescence intensity at 665 nm; assay type: physicochemical; conditions: 665 nanometers, ambient temperature

Percent Decrease in Fluorescence ([1]; 2 Hours): 20%
Percent Decrease in Fluorescence ([1]; 4 Hours): 42%
Percent Decrease in Fluorescence ([1]; 24 Hours): 99%
Structure (SMILES): O=C(O)CN1/C(=C/C=C/C=C/c2sc3ccccc3[n+]2CC(=O)O)Sc2ccccc21 [Cyanine Blue Dye/Water, Cyanine Blue Dye]

Percent Decrease in Fluorescence ([2]; 2 Hours): 13%
Percent Decrease in Fluorescence ([2]; 4 Hours): 13%
Percent Decrease in Fluorescence ([2]; 24 Hours): 50%
Structure (SMILES): O=C(O)C1=C(O)/C(=C2/C(=O)C(c3c(O)cc(O)c(C(=O)O)c3O)=C2O)C(O)=CC1=O [Carboxyphloroglucinol Squaraine Dye]

Structure (SMILES): CC1(C)C(/C=C/C=C/C=C/C=C2/N(CCCCS(=O)(=O)O)c3ccc4ccccc4c3C2(C)C)=[N+](CCCCS(=O)(=O)O)c2ccc3ccccc3c21.[Na+].[Na+] [indocyanine green, Indocyanine Green Dye]
time constant (τ) for blood clearance [3]: 138 s
Percent Decrease in Fluorescence ([4]; 2 Hours): 0%
Percent Decrease in Fluorescence ([4]; 4 Hours): 19%
Percent Decrease in Fluorescence ([4]; 24 Hours): 48%
plasma half-life [5]: very short
uptake by the liver [5]: rapidly taken up by the liver
degradation in aqueous media [6]: undergoes degradation in aqueous media with loss of fluorescence

Percent Decrease in Fluorescence ([7]; 2 Hours): 92%
Percent Decrease in Fluorescence ([7]; 4 Hours): 64%
Percent Decrease in Fluorescence ([7]; 24 Hours): 46%
Structure (SMILES): O=C(O)CN1/C(=C/C2=C(O)C(=C/c3sc4ccccc4[n+]3CC(=O)O)/C2=O)Sc2ccccc21 [Benzothiazolim Dye/Water, Benzothiazolium Squaraine Dye]

Source: US6423547B1, “Non-covalent bioconjugates useful for diagnosis and therapy” (Mallinckrodt Inc., priority 1998, dated 2002)
